In paper PMC7559210, “Verification of P-Glycoprotein Function at the Dermal Barrier in Diffusion Cells and Dynamic “Skin-On-A-Chip” Microfluidic Device” (Pharmaceutics, 2020):
Each block holds one compound with its values, some of them ahead of it.

What was measured:
[1] = tested on: P-glycoprotein; type: in vitro ADME
Protocol: (§1) Excised skin samples of both young and aged rats were obtained in the same way. Animals were anaesthetized intraperitoneally with chloral hydrate using a dose of 400 mg/kg. Under anesthesia, the hair of the abdominal skin was shaved off with an electric shaver, then epilated by an epilator cream (ISANA® cream from Rossmann, Burgwedel, Germany). Finally, the skin surface was washed and wiped dry. The abdominal skin was then mechanically sensitized 10 times by tape stripping (10 TS) with leucoplast (BSN Medical GmbH, Hamburg, Germany) to remove the upper layers of dead keratinocytes. The removal of the upper skin layer of the stratum corneum by adhesive tape has become a common practice in recent decades. The determination of the kinetics and penetration depth of different drugs by creating concentration–time profiles is facilitated by the use of the noninvasive method of tape stripping. Tape stripping makes it easier to evaluate the bioequivalence of topical dermatological dosage forms, and also makes it possible to reach detectable concentrations in the dermis and subcutis in preclinical animal models. […] Following these skin preparations, an approximately 1-cm, full-thickness skin incision was made in the caudal part of the abdominal area using scissors. After the first cutting with blunt Metzen scissors, fat, connecting tissue and blood vessels were carefully removed. Then, there were two options for continuing with the preparations, as follows. (1) Fresh skin preparation: Six skin disc-preparations were made from the abdominal, tape-stripped skin (approximately 3 cm in diameter each) for Franz diffusion cell study, or three skin square-preparations (approx. 1.5 cm × 1.5 cm) for skin-on-a-chip experiments. The skin preparations were stored in PPF at room temperature until the initiation of experiments, and were then placed between the donor and acceptor chambers on the cells of the Franz diffusion system or on the chip device. The stratum corneum layer of the skin contacted the test drug formulation, facing the donor chamber, while the dermal/subcutaneous surface contacted the PPF in the acceptor compartments. (2) Frozen skin preparation: Freshly prepared, tape stripped skin preparations were wrapped in an aluminum foil and stored in a deep freezer at −80 °C until the diffusion experiments. On the day of the study, the skin preparations were thawed at room temperature, and then placed on the Franz diffusion cells/chip devices in a similar way as that described for fresh skin preparation.
Hanson 6-Cell Manual Diffusion Test System-type Franz diffusion cells were used in the experiments (Hanson, ABL&E-JASCO Hungary Kft, Budapest, Hungary).
In each unit of the system, there was a heated magnetic stirrer chamber (acceptor compartment), stirred by a helical mixer (Figure 1). A magnet was placed on the bottom of the chamber and the helical mixer was connected to it. The acceptor chambers of the diffusion cells were filled with PPF. […] The diffusion surface was 1.767 cm^2. In the final step, a glass lid was placed onto the donor chambers. In each experiment, six parallel units were used and three cells of them always had the same arrangement with the same conditions. The cells were connected by plastic tubes. In these plastic connectors, distilled water at 32 °C was circulated to mimic the physiological dermal temperature. […] First, 0.5 mL samples were taken every 30 min from the acceptor compartments. After each sample collection, the removed fluid volume was replaced with PPF. Altogether, 60 samples were taken in each experiment, i.e., 10 from each unit. The collected samples were immediately placed on dry ice and stored at −80 °C until bioanalysis.
The dwell time of the transitions was 300 msec. Source conditions were as follows.

[2] = tested on: P-glycoprotein; conditions: fresh young rat skin
Protocol: as §1, with “The stratum corneum layer of the skin contacted the test drug formulation, facing the donor chamber, while the dermal/subcutaneous surface contacted the PPF in the acceptor compartments. (2) Frozen skin preparation: Freshly prepared, tape stripped skin preparations were wrapped in an aluminum foil and stored in a deep freezer at −80 °C until the diffusion experiments. On the day of the study, the skin preparations were thawed at room temperature, and then placed on the Franz diffusion cells/chip devices in a similar way as that described for fresh skin preparation.” left out

[3] = no source given; cited from earlier work
[4] = tested on: P-glycoprotein; conditions: topical PSC-833; erythromycin creams
Protocol: In the current study, a transdermal microdialysis technique was applied to investigate the skin penetration of test compounds through the dermal skin layer in anesthetized rats [24].
First, the epilation and shaving of the abdominal skin surface were performed under slight anesthesia, according to the protocol described in the ex vivo studies section.
The experiments were conducted the day after the skin preparation in order to eliminate the possible effect of the epilator cream and the dermal trauma caused by shaving. Animals were reanesthetized intraperitoneally with chloral hydrate with a dose of 400 mg/kg, and fixed in a supine position. In order to keep their body temperature at 37 °C during the experiment, they were placed on a heating pad. The abdominal skin was wiped dry and mechanically sensitized 10 times by tape-stripping with leucoplast (BSN Medical GmbH, Hamburg, Germany).
Two microdialysis probes (MAB11.8.10, Microbiotech, Stockholm, Sweden) were introduced in parallel at a distance of 2 cm through a guide needle (18G) into the dermal tissue. After the withdrawal of the guide needle, the probe membrane stayed in the dermal tissue, the position of which was previously verified by ultrasonic scanning. Probes were then fixed carefully with tape (Omnisilk, Hartmann, Germany).

[5] = tested on: P-gp; parameters: method as in PMID 18725258; conditions: in vivo penetration experiments; cited from earlier work

effect of PSC-833 pretreatment on erythromycin permeability (AUC) ([1]; fresh skins, young and aged, 2% ERY cream, PSC-833 1 mg/mL DMSO, 100 μL, 10 min before, ANOVA, Tukey test): significant effect on permeability
effect of P-gp inhibitor on erythromycin absorption ([1]; frozen aged skin, 2% ERY cream): opposite effect
Compound: C/C=C/C[C@@H](C)C(=O)[C@H]1C(=O)N[C@@H](C(C)C)C(=O)N(C)CC(=O)N(C)[C@@H](CC(C)C)C(=O)N[C@@H](C(C)C)C(=O)N(C)[C@@H](CC(C)C)C(=O)N[C@@H](C)C(=O)N[C@H](C)C(=O)N(C)[C@@H](CC(C)C)C(=O)N(C)[C@@H](CC(C)C)C(=O)N(C)[C@@H](C(C)C)C(=O)N1C [PSC-833, valspodar]
effect of PSC-833 pretreatment on quinidine permeability (AUC) ([1]; fresh skins, young and aged, 2% QND cream, ANOVA, Tukey test): statistically relevant effect only on aged subjects

diffusion through frozen/thawed vs fresh skin ([1]; 2% ERY cream): enhanced compared to fresh skins
permeability in aged vs young skin ([1]; 2% ERY cream): increased in the aged skin samples
Compound: CC[C@H]1OC(=O)[C@H](C)[C@@H](O[C@H]2C[C@@](C)(OC)[C@@H](O)[C@H](C)O2)[C@H](C)[C@@H](O[C@@H]2O[C@H](C)C[C@H](N(C)C)[C@H]2O)[C@](C)(O)C[C@@H](C)C(=O)[C@H](C)[C@@H](O)[C@]1(C)O [erythromycin, Erythromycin]
dynamics of absorption in the 270-min observation period ([2]; 2% suspension cream): only the absorption phase could be reached, or the plateau was initiated
logP (lipophilicity) [3]: 3.06
effect of P-gp modulation on drug absorption in vivo [4]: moderate but reproducible reduction in drug absorption

Compound: CCC(C)n1ncn(-c2ccc(N3CCN(c4ccc(OCC5COC(Cn6cncn6)(c6ccc(Cl)cc6Cl)O5)cc4)CC3)cc2)c1=O (stereo not shown) [itraconazole]
drug distribution in the skin after topical application with lack of or inhibition of P-gp [5]: decreased drug distributions therein

Compound: C=C[C@H]1C[N@@]2CC[C@H]1C[C@@H]2[C@@H](O)c1ccnc2ccc(OC)cc12 [quinidine]
effect of P-gp inhibition on transdermal delivery ([2]; 2% gel, PSC-833 pretreatment): dramatic reduction in transdermal delivery
plateau phase of skin penetration profile ([2]; 2% gel, flow 4 μL/min): 90 to 180 min
permeability of the controls, aged vs young skin ([1]; fresh skins, DMSO pretreated, 2% QND cream): independent of age

Compound: rhodamine
drug distribution in the skin after topical application with lack of or inhibition of P-gp [5]: decreased drug distributions therein
